Experimental data as given in patent US4864038A, “Antihypercholesterolemic compounds” (Merck & Co., Inc., priority 1988, dated 1989).

System: HMG-CoA reductase
Experiment: HMG-CoA Reductase Inhibition Assay (in vitro, intrinsic inhibitory activity)
Type: biochemical
Settings: IC50 of test compound compared with compactin determined simultaneously, compactin assigned a value of 100; tested as sodium salt of dihydroxy acid form; rat liver microsomal enzyme
Description: The intrinsic HMG-CoA reductase inhibition activity of the claimed compounds is measured in the in vitro protocol published in J. Med. Chem., 28, p. 347-358 (1985) and described below:
Male Holtzman Sprague-Dawley rats (225-250 g) were kept on reversed lighting and fed Purina rat chow containing 3% cholestryamine for 7 days preceding their sacrifice by CO2 asphyxiation. Livers were removed 6 hours into the dark cycle and used immediately to prepare microsomes. […]
Test compounds or compactin (after first being converted to the sodium salt of their dihydroxy acid form in situ by addition of 1N NaOH (1 equivalent) were added to the assay system in 10-μL volumes at multiconcentration levels. After a 40-minute incubation at 37° C. with shaking and exposure to air, the reaction was stopped by the addition of 0.4 mL of 8N HCl. After an additional 30-minute incubation period at 37° C. to ensure the complete lactonization of mevalonic acid to mevalonolactone, 0.2 ml of the mixture was added to an 0.5×5.0 cm column containing 100-200 mesh Bio-Rex 5, chloride form (Bio-Rad), wetted with distilled water, as described by Alberts et al [J. Proc. Natl. Acad. Sci. U.S.A., 1980, 77, 3957]. […] Five milliliters of Aquasol-2 (New England Nuclear) was added to each vial, and radioactivity was measured in a Packard Tri Carb Prias scintillation counter. […]

Relative Potency | SMILES
38 | C[C@H]1C=C2C=C[C@H](C)[C@H](CC[C@@H]3C[C@@H](O)CC(=O)O3)[C@H]2[C@@H](OC(=O)C(C)(C)[S+]([O-])c2ccccc2)C1 (stereo partly drawn) [Example 2, 6(R)-[2-[8(S)-[2-Methyl-2-(phenylsulfinyl)propionyloxy]-2(S),6(R)-dimethyl-1,2,6,7,8,8a(R)-hexahydronaphthyl-1(S)]ethyl]-4(R)-hydroxy-3,4,5,,6-tetrahydro-2H-pyran-2-one]
156 | C[C@H]1C=C2C=C[C@H](C)[C@H](CC[C@@H]3C[C@@H](O)CC(=O)O3)[C@H]2[C@@H](OC(=O)C(C)(C)Sc2ccccc2)C1 [Example 1, 6(R)-[2-[8(S)-[2-Methyl-2-(phenylthio)propionyloxy]-2(S),6(R)-dimethyl-1,2,6,7,8,8a(R)-hexahydronaphthyl-1(S)]ethyl]-4(R)-hydroxy-3,4,5,6-tetrahydro-2H-pyran-2-one]
